Experimental data: patent US11919906B2, “Crystal form of ACP-196 and method of treatment thereof” (Hangzhou SoliPharma Co., Ltd., priority 2016, dated 2024)

How the values were obtained:
[1] = Thermogravimetric analysis (TGA), weight loss / residual solvents; assay type: physicochemical; details: before 150° C.
Procedure: Thermogravimetric analysis data were collected on TA instruments Q500 TGA. Method: A sample of 5 to 15 mg was placed in a platinum pan, using High Resolution™, the sample was heated from room temperature to 350° C. at a heating rate of 10° C./min under the protection of dry nitrogen purge at 40 mL/min.

[2] = Isothermal sorption (dynamic vapor sorption), hygroscopicity; assay type: physicochemical; details: between 30 to 80% RH
Procedure: Dynamic vapor sorption data and isothermal sorption data were collected on TA Instruments Q5000 TGA. Method: A sample of 1 to 10 mg was placed in a platinum pan; the weight change of the sample during the change in relative humidity from 0% to 80% to 0% was measured.

SMILES | weight loss (TGA) [1] [%] | weight change (isothermal sorption plot) [2] [%]
CC#CC(=O)N1CCC[C@H]1c1nc(-c2ccc(C(=O)Nc3ccccn3)cc2)c2c(N)nccn12 [amorphous ACP-196] | 11.1 | 5.5
CC#CC(=O)N1CCC[C@H]1c1nc(-c2ccc(C(=O)Nc3ccccn3)cc2)c2c(N)nccn12 [ACP-196 Form 1] | – | 0.8
